Source: paper PMC11435058, “Synthesis of New Thiazole-Privileged Chalcones as Tubulin Polymerization Inhibitors with Potential Anticancer Activities” (Pharmaceuticals, 2024)

Tests used:
TK-10 = experiment: NCI-60 anticancer screen (SRB; single dose and five doses); details: Homo sapiens
HL-60(TB) = experiment: as above; details: Homo sapiens
DU-145 = experiment: as above; details: Homo sapiens
SNB-19 = experiment: cells; details: Homo sapiens
MDA-MB-435 = experiment: NCI-60 anticancer screen (SRB; single dose and five doses); details: Homo sapiens
PC-3 = experiment: as above; details: Homo sapiens
SW-620 = experiment: as above; details: Homo sapiens
MALME-3M = experiment: as above; details: Homo sapiens
CCRF-CEM = experiment: NCI-60 anticancer screen (SRB; single dose 10 μM and five doses); details: Homo sapiens
NCI-H23 = experiment: NCI-60 anticancer screen (SRB; single dose and five doses); details: Homo sapiens
UACC-257 = experiment: as above; details: Homo sapiens
OVCAR-4 = experiment: as above; details: Homo sapiens
MOLT-4 = experiment: as above; details: Homo sapiens
MDA-MB-231/ATCC = experiment: as above; details: Homo sapiens
BT-549 = experiment: as above; details: Homo sapiens
A498 = experiment: as above; details: Homo sapiens
SK-OV-3 = experiment: as above; details: Homo sapiens
786-0 = experiment: as above; details: Homo sapiens
M14 = experiment: as above; details: Homo sapiens
HOP-62 = experiment: as above; details: Homo sapiens
SN12C = experiment: as above; details: Homo sapiens
SK-MEL-28 = experiment: as above; details: Homo sapiens
HCC-2998 = experiment: as above; details: Homo sapiens
SK-MEL-5 = experiment: as above; details: Homo sapiens
RXF 393 = experiment: as above; details: Homo sapiens
T-47D = experiment: as above; details: Homo sapiens, T47D
SF-539 = experiment: as above; details: Homo sapiens
SF-295 = experiment: as above; details: Homo sapiens
[1] = 48 h, read-out: Growth Percentage

Cc1[nH]c(=S)sc1C(=O)/C=C/c1cccc(Cl)c1 [2e, (E)-3-(3-Chlorophenyl)-1-(4-Methyl-2-Thioxo-2,3-Dihydrothiazol-5-yl)Prop-2-En-1-One] gave a GI50 (TK-10; TK-10) of 19.5 µM, an IC50 (TK-10; TK-10) of 45.7 µM and a CC50 (TK-10; TK-10, read-out: LC50) of over 100 µM. For the same molecule, the IC (TGI) (TK-10; TK-10, read-out: TGI) was 47.9 µM, the GI50 (HL-60(TB); HL-60) was 2.24 µM and the IC50 (HL-60(TB); HL-60) was 4.27 µM. For the same molecule, the activity at 10 µM (HL-60(TB); HL-60, 48 h, read-out: Growth Percentage) was 25.3%, the CC50 (HL-60(TB); HL-60, read-out: LC50) was over 100 µM and the IC (TGI) (HL-60(TB); HL-60, read-out: TGI) was 7.08 µM. For the same molecule, the GI50 (DU-145; DU-145) was 3.24 µM, the IC50 (DU-145; DU-145) was 4.79 µM and the activity at 10 µM (DU-145; DU-145, 48 h, read-out: Growth Percentage) was 16.1%. For the same molecule, the CC50 (DU-145; DU-145, read-out: LC50) was 42.7 µM, the IC (TGI) (DU-145; DU-145, read-out: TGI) was 11.5 µM and the IC50 (SNB-19; SNB-19) was 17 µM. The CC50 (SNB-19; SNB-19, read-out: LC50) was 49 µM, the IC (TGI) (SNB-19; SNB-19, read-out: TGI) was 21.4 µM and the GI50 (MDA-MB-435; MDA-MB-435) was 2.09 µM. For the same molecule, the IC50 (MDA-MB-435; MDA-MB-435) was 3.55 µM, the activity at 10 µM (MDA-MB-435; MDA-MB-435, 48 h, read-out: Growth Percentage) was 17.3% and the CC50 (MDA-MB-435; MDA-MB-435, read-out: LC50) was 17 µM. It also gave an IC (TGI) (MDA-MB-435; MDA-MB-435, read-out: TGI) of 5.01 µM, a GI50 (PC-3; PC-3) of 2.88 µM and an IC50 (PC-3; PC-3) of 4.9 µM. The activity at 10 µM (PC-3; PC-3, 48 h, read-out: Growth Percentage) was 31.8%, the CC50 (PC-3; PC-3, read-out: LC50) was over 100 µM and the IC (TGI) (PC-3; PC-3, read-out: TGI) was 13.8 µM. It also gave a GI50 (SW-620; SW-620) of 1.91 µM, an IC50 (SW-620; SW-620) of 3.16 µM and an activity at 10 µM (SW-620; SW-620, 48 h, read-out: Growth Percentage) of 8.6%. For the same molecule, the CC50 (SW-620; SW-620, read-out: LC50) was 7.59 µM, the IC (TGI) (SW-620; SW-620, read-out: TGI) was 3.8 µM and the GI50 (MALME-3M) was 2.24 µM. For the same molecule, the IC50 (MALME-3M) was 5.13 µM, the activity at 10 µM (MALME-3M; [1]) was 86.9% and the CC50 (MALME-3M; read-out: LC50) was 50.1 µM. The IC (TGI) (MALME-3M; read-out: TGI) was 5.75 µM, the GI50 (CCRF-CEM) was 2.45 µM and the IC50 (CCRF-CEM) was 3.72 µM. For the same molecule, the activity at 10 µM (CCRF-CEM; [1]) was 15.2%, the IC (TGI) (CCRF-CEM; read-out: TGI) was 7.94 µM and the GI50 (NCI-H23; NCI-H23) was 2.09 µM. It also gave an IC50 (NCI-H23; NCI-H23) of 3.63 µM, an activity at 10 µM (NCI-H23; NCI-H23, 48 h, read-out: Growth Percentage) of 18% and a CC50 (NCI-H23; NCI-H23, read-out: LC50) of 12.9 µM. The IC (TGI) (NCI-H23; NCI-H23, read-out: TGI) was 4.68 µM, the GI50 (UACC-257; UACC-257) was 3.63 µM and the IC50 (UACC-257; UACC-257) was 9.77 µM. It also gave an activity at 10 µM (UACC-257; UACC-257, 48 h, read-out: Growth Percentage) of 52.7%, a CC50 (UACC-257; UACC-257, read-out: LC50) of 63.1 µM and an IC (TGI) (UACC-257; UACC-257, read-out: TGI) of 14.8 µM. It also gave a GI50 (OVCAR-4; OVCAR-4) of 4.47 µM, an IC50 (OVCAR-4; OVCAR-4) of 12.9 µM and an activity at 10 µM (OVCAR-4; OVCAR-4, 48 h, read-out: Growth Percentage) of 31.7%. The CC50 (OVCAR-4; OVCAR-4, read-out: LC50) was over 100 µM, the IC (TGI) (OVCAR-4; OVCAR-4, read-out: TGI) was 41.7 µM and the GI50 (MOLT-4; MOLT-4) was 2.82 µM. The IC50 (MOLT-4; MOLT-4) was 4.27 µM, the activity at 10 µM (MOLT-4; MOLT-4, 48 h, read-out: Growth Percentage) was 19.8% and the CC50 (MOLT-4; MOLT-4, read-out: LC50) was over 100 µM. The IC (TGI) (MOLT-4; MOLT-4, read-out: TGI) was over 100 µM, the GI50 (MDA-MB-231/ATCC; MDA-MB-231) was 2.45 µM and the IC50 (MDA-MB-231/ATCC; MDA-MB-231) was 6.17 µM. It also gave an activity at 10 µM (MDA-MB-231/ATCC; MDA-MB-231, 48 h, read-out: Growth Percentage) of -0.43%, a CC50 (MDA-MB-231/ATCC; MDA-MB-231, read-out: LC50) of 39.8 µM and an IC (TGI) (MDA-MB-231/ATCC; MDA-MB-231, read-out: TGI) of 6.92 µM. For the same molecule, the GI50 (BT-549; BT-549) was 2.24 µM, the IC50 (BT-549; BT-549) was 5.89 µM and the activity at 10 µM (BT-549; BT-549, 48 h, read-out: Growth Percentage) was 2.28%. For the same molecule, the IC (TGI) (BT-549; BT-549, read-out: TGI) was 6.17 µM, the GI50 (A498; A498) was 19.5 µM and the IC50 (A498; A498) was 47.9 µM. For the same molecule, the activity at 10 µM (A498; A498, 48 h, read-out: Growth Percentage, A498, dose of 10 μM) was 98%, the CC50 (A498; A498, read-out: LC50) was 91.2 µM and the IC (TGI) (A498; A498, read-out: TGI) was 42.7 µM. It also gave a GI50 (SK-OV-3; SK-OV-3) of 17.4 µM, an IC50 (SK-OV-3; SK-OV-3) of 51.3 µM and an activity at 10 µM (SK-OV-3; SK-OV-3, 48 h, read-out: Growth Percentage) of 59.9%. It also gave a CC50 (SK-OV-3; SK-OV-3, read-out: LC50) of over 100 µM, an IC (TGI) (SK-OV-3; SK-OV-3, read-out: TGI) of over 100 µM and a GI50 (786-0; 786-0) of 2.51 µM. The IC50 (786-0; 786-0) was 4.07 µM, the activity at 10 µM (786-0; 786-0, 48 h, read-out: Growth Percentage) was 13.3% and the CC50 (786-0; 786-0, read-out: LC50) was 37.1 µM. It also gave an IC (TGI) (786-0; 786-0, read-out: TGI) of 6.31 µM, a GI50 (M14; M14) of 2.88 µM and an IC50 (M14; M14) of 4.17 µM. For the same molecule, the activity at 10 µM (M14; M14, 48 h, read-out: Growth Percentage) was 40.2%, the IC (TGI) (M14; M14, read-out: TGI) was 9.55 µM and the GI50 (HOP-62; HOP-62) was 2.57 µM. It also gave an IC50 (HOP-62; HOP-62) of 4.68 µM, an activity at 10 µM (HOP-62; HOP-62, 48 h, read-out: Growth Percentage) of 10.4% and a CC50 (HOP-62; HOP-62, read-out: LC50) of 74.1 µM. For the same molecule, the IC (TGI) (HOP-62; HOP-62, read-out: TGI) was 6.31 µM, the GI50 (SN12C) was 2 µM and the IC50 (SN12C) was 3.55 µM. For the same molecule, the activity at 10 µM (SN12C; [1]) was 12%, the CC50 (SN12C; read-out: LC50) was 8.91 µM and the IC (TGI) (SN12C; read-out: TGI) was 4.27 µM. For the same molecule, the GI50 (SK-MEL-28; SK-MEL-28) was 2.14 µM, the IC50 (SK-MEL-28; SK-MEL-28) was 4.07 µM and the activity at 10 µM (SK-MEL-28; SK-MEL-28, 48 h, read-out: Growth Percentage) was 44.7%. It also gave a CC50 (SK-MEL-28; SK-MEL-28, read-out: LC50) of 13.5 µM, an IC (TGI) (SK-MEL-28; SK-MEL-28, read-out: TGI) of 4.9 µM and a GI50 (HCC-2998; HCC 2998) of 2.57 µM. The IC50 (HCC-2998; HCC 2998) was 4.37 µM, the activity at 10 µM (HCC-2998; HCC 2998, 48 h, read-out: Growth Percentage) was 13.9% and the CC50 (HCC-2998; HCC 2998, read-out: LC50) was 28.2 µM. It also gave a GI50 (SK-MEL-5; SK-MEL-5) of 4.79 µM, an IC50 (SK-MEL-5; SK-MEL-5) of 9.12 µM and an activity at 10 µM (SK-MEL-5; SK-MEL-5, 48 h, read-out: Growth Percentage) of 16.1%. It also gave a CC50 (SK-MEL-5; SK-MEL-5, read-out: LC50) of 41.7 µM, an IC (TGI) (SK-MEL-5; SK-MEL-5, read-out: TGI) of 17 µM and a GI50 (RXF 393; RXF 393) of 1.91 µM. It also gave an IC50 (RXF 393; RXF 393) of 5.13 µM, an activity at 10 µM (RXF 393; RXF 393, 48 h, read-out: Growth Percentage) of 10.7% and a CC50 (RXF 393; RXF 393, read-out: LC50) of 10 µM. The IC (TGI) (RXF 393; RXF 393, read-out: TGI) was 4.37 µM, the GI50 (T-47D) was 3.39 µM and the IC50 (T-47D) was 7.94 µM. The activity at 10 µM (T-47D; [1]) was 4.54%, the CC50 (T-47D; read-out: LC50) was over 100 µM and the IC (TGI) (T-47D; read-out: TGI) was 20.9 µM. For the same molecule, the GI50 (SF-539; SF-539) was 2 µM, the IC50 (SF-539; SF-539) was 3.63 µM and the activity at 10 µM (SF-539; SF-539, 48 h, read-out: Growth Percentage) was -10.7%. It also gave an IC (TGI) (SF-539; SF-539, read-out: TGI) of 4.07 µM, a GI50 (SF-295; SF-295) of 4.37 µM and an IC50 (SF-295; SF-295) of 11.5 µM. The activity at 10 µM (SF-295; SF-295, 48 h, read-out: Growth Percentage) was 41.8%, the CC50 (SF-295; SF-295, read-out: LC50) was 43.6 µM and the IC (TGI) (SF-295; SF-295, read-out: TGI) was 17 µM.
